What follows are compounds tested against CK1δ (Homo sapiens, UniProt P48730) (assay: CK1δ kinase assay (Caliper LabChip electrophoretic separation of fluoresceinated peptide substrate and product)). Conditions: 200 pM CK1δ, 50 μM ATP, 1.5 μM peptide, 22 hours at room temperature; read-out: CK1δ IC50 range.
Assay type: biochemical
Experimental: (§1) CK1ε and CK1δ Kinase Assays
(§2) The kinase assay was performed in V-bottom 384-well plates. […] The reaction was incubated at room temperature for 22 hours and terminated by adding 45 μl of 35 mM EDTA to each sample. The reaction mixture was analyzed on the Caliper LABCHIP®3000 (Caliper, Hopkinton, Mass.) by electrophoretic separation of the unphosphorylated substrate and phosphorylated product. […] Compounds were dissolved at 10 mM in dimethylsulfoxide (DMSO) and evaluated at eleven concentrations. IC50 values were derived by non-linear regression analysis.

CK1δ, sequence (P48730 whole entry): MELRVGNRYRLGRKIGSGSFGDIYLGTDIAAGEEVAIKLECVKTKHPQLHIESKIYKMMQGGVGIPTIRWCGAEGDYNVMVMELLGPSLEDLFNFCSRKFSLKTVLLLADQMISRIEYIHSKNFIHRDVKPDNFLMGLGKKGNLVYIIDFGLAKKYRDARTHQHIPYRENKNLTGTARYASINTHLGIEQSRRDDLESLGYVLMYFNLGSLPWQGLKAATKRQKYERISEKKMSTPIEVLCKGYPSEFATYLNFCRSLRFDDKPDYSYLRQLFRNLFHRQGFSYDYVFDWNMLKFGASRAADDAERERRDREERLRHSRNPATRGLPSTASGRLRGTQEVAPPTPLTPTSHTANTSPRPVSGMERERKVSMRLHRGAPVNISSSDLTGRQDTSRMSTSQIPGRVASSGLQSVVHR

Row | SMILES | IC50
1 | NC(=O)c1c(-c2cccc(Cl)c2)nn2c1CN(C(=O)NC1CC(C(F)F)C1)CC2 (centres unmarked) [Compound 257, 2-(3-Chlorophenyl)-N^5-(3-(difluoromethyl)cyclobutyl)-6,7-dihydropyrazolo[1,5-a]pyrazine-3,5(4H)-dicarboxamide] | 0.01 to 10 nM
2 | N#Cc1ccc(O[C@H]2C[C@H](NC(=O)N3CCn4nc(-c5ccc(Cl)c(Cl)c5)c(C(N)=O)c4C3)C2)cc1 [Compound 268, N^5-((1r,3r)-3-(4-Cyanophenoxy)cyclobutyl)-2-(3,4-dichlorophenyl)-6,7-dihydropyrazolo[1,5-a] pyrazine-3,5(4H)-dicarboxamide] | 0.01 to 10 nM
3 | N#Cc1ccc([C@H]2C[C@@H](NC(=O)N3CCn4nc(-c5ccc(F)c(Cl)c5)c(C(N)=O)c4C3)C2)cc1 [Compound 282, 2-(3-Chloro-4-fluorophenyl)-N^5-((1s,3s)-3-(4-cyanophenyl)cyclobutyl)-6,7-dihydropyrazolo[1,5-a]pyrazine-3,5(4H)-dicarboxamide] | 0.01 to 10 nM
4 | CCC1(NC(=O)N2CCn3nc(-c4ccc(Cl)c(Cl)c4)c(C(N)=O)c3C2)CC(F)(F)C1 [Compound 301, 2-(3,4-Dichlorophenyl)-N^5-(1-ethyl-3,3-difluorocyclobutyl)-6,7-dihydropyrazolo[1,5-a]pyrazine-3,5(4H)-dicarboxamide] | 0.01 to 10 nM
5 | CC(C)(O)[C@H](F)CNC(=O)N1CCn2nc(-c3cccc(Cl)c3)c(C(N)=O)c2C1 [Compound 337, (R)-2-(3-Chlorophenyl)-N^5-(2-fluoro-3-hydroxy-3-methylbutyl)-6,7-dihydropyrazolo[1,5-a]pyrazine-3,5(4H)-dicarboxamide] | 0.01 to 10 nM

The next lines start with the values.

Row | IC50 | SMILES
6 | 0.01 to 10 nM | CC(C)(C)NC(=O)N1Cc2c(C(N)=O)c(-c3cccc(Cl)c3)nn2C(CO)C1 (centres unmarked) [Compound A2, N^5-(tert-Butyl)-2-(3-chlorophenyl)-7-(hydroxymethyl)-6,7-dihydropyrazolo[1,5-a] pyrazine-3,5(4H)-dicarboxamide]
7 | 0.01 to 10 nM | NC(=O)c1c(-c2cccc(Cl)c2)nn2c1CN(C(=O)NC(CF)(CF)CF)CC2 [Compound A41, 2-(3-Chlorophenyl)-N^5-(1,3-difluoro-2-(fluoromethyl)propan-2-yl)-6,7-dihydropyrazolo[1,5-a] pyrazine-3,5(4H)-dicarboxamide]
8 | 0.01 to 10 nM | N#CC1(NC(=O)N2CCn3nc(-c4cccc(Cl)c4)c(C(N)=O)c3C2)CCC1 [Compound A43, 2-(3-Chlorophenyl)-N^5-(1-cyanocyclobutyl)-6,7-dihydropyrazolo[1,5-a]pyrazine-3,5(4H)-dicarboxamide]
9 | 0.01 to 10 nM | CC1(NC(=O)N2CCn3nc(-c4cccc(Cl)c4)c(C(N)=O)c3C2)CCC1 [Compound A44, 2-(3-Chlorophenyl)-N^5-(1-methylcyclobutyl)-6,7-dihydropyrazolo[1,5-a]pyrazine-3,5(4H)-dicarboxamide]
10 | 0.01 to 10 nM | N#CC1(NC(=O)N2CCn3nc(-c4cccc(Cl)c4)c(C(N)=O)c3C2)CC1 [Compound A45, 2-(3-Chlorophenyl)-N^5-(1-cyanocyclopropyl)-6,7-dihydropyrazolo[1,5-a]pyrazine-3,5(4H)-dicarboxamide]
11 | 0.01 to 10 nM | NC(=O)c1c(-c2ccc(F)c(Cl)c2)nn2c1CN(C(=O)NC13CCC(C(F)F)(CC1)CC3)CC2 [Compound A57, 2-(3-Chloro-4-fluorophenyl)-N^5-(4-(difluoromethyl)bicyclo[2.2.2]octan-1-yl)-6,7-dihydropyrazolo[1,5-a]pyrazine-3,5(4H)-dicarboxamide]
12 | 0.01 to 10 nM | COC12CCC(NC(=O)N3CCn4nc(-c5ccc(F)c(Cl)c5)c(C(N)=O)c4C3)(CC1)CC2 [Compound A59, 2-(3-Chloro-4-fluorophenyl)-N^5-(4-methoxybicyclo[2.2.2]octan-1-yl)-6,7-dihydropyrazolo[1,5-a]pyrazine-3,5(4H)-dicarboxamide]
13 | 0.01 to 10 nM | COC12CCC(NC(=O)N3CCn4nc(-c5ccc(F)c(Cl)c5)c(C(N)=O)c4C3)(CC1)C(=O)C2 [Compound A60, 2-(3-Chloro-4-fluorophenyl)-N^5-(4-methoxy-2-oxobicyclo[2.2.2]octan-1-yl)-6,7-dihydropyrazolo[1,5-a]pyrazine-3,5(4H)-dicarboxamide]
14 | 0.01 to 10 nM | N#CC12C3C4C1C1C2C3C41NC(=O)N1CCn2nc(-c3ccc(F)c(Cl)c3)c(C(N)=O)c2C1 (centres unmarked) [Compound A70, N^5-(4-Cyanocuban-1-yl)-2-(3-chloro-4-fluorophenyl)-6,7-dihydropyrazolo[1,5-a]pyrazine-3,5(4H)-dicarboxamide]
15 | 0.01 to 10 nM | NC(=O)c1c(-c2ccc(F)c(Cl)c2)nn2c1CN(C(=O)NC13C4C5C1C1C3C4C51F)CC2 (centres unmarked) [Compound A71, N^5-(4-Fluorocuban-1-yl)-2-(3-chloro-4-fluorophenyl)-6,7-dihydropyrazolo[1,5-a]pyrazine-3,5(4H)-dicarboxamide]
16 | 0.01 to 10 nM | NC(=O)c1c(-c2ccc(F)c(Cl)c2)nn2c1CN(C(=O)NC13C4C5C6C4C1C6C53)CC2 (centres unmarked) [Compound A72, N^5-(Cuban-1-yl)-2-(3-chloro-4-fluorophenyl)-6,7-dihydropyrazolo[1,5-a]pyrazine-3,5(4H)-dicarboxamide]
17 | 0.01 to 10 nM | NC(=O)c1c(-c2ccc(F)c(Cl)c2)nn2c1CN(C(=O)NC13CCC(CC1)C3)CC2 [Compound A73, N^5-(Bicyclo[2.2.1]heptan-1-yl)-2-(3-chloro-4-fluorophenyl)-6,7-dihydropyrazolo[1,5-a]pyrazine-3,5(4H)-dicarboxamide]
18 | 0.01 to 10 nM | N#Cc1ccc(C23CCC(NC(=O)N4CCn5nc(-c6cccc(Cl)c6)c(C(N)=O)c5C4)(CC2)CC3)cc1 [Compound A74, 2-(3-Chlorophenyl)-N^5-(4-(4-cyanophenyl)bicyclo[2.2.2]octan-1-yl)-6,7-dihydropyrazolo[1,5-a]pyrazine-3,5(4H)-dicarboxamide]
19 | 0.01 to 10 nM | NC(=O)c1c(-c2cccc(Cl)c2)nn2c1CN(C(=O)NC13CCC(F)(CC1)CC3)CC2 [Compound A75, 2-(3-Chlorophenyl)-N^5-(4-fluorobicyclo[2.2.2]octan-1-yl)-6,7-dihydropyrazolo[1,5-a]pyrazine-3,5(4H)-dicarboxamide]

The compounds below were run against CK1ε (Homo sapiens, UniProt P49674) (assay: CK1ε kinase assay (Caliper LabChip electrophoretic separation of fluoresceinated peptide substrate and product)). Conditions: 200 pM CK1ε, 50 μM ATP, 1.5 μM peptide, 22 hours at room temperature; read-out: CK1ε IC50 range.
CK1ε, sequence (P49674 whole entry): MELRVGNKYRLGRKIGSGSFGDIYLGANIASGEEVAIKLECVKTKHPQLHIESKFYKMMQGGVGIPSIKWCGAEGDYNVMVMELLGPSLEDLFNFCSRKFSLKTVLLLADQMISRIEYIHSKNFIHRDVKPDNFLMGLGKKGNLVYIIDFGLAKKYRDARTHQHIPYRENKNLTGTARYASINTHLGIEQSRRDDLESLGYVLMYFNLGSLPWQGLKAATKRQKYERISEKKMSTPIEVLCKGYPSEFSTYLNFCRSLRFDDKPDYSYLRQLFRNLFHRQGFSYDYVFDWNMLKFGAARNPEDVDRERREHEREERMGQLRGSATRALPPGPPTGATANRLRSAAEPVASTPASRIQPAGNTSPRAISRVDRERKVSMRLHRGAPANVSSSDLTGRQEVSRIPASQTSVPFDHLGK
Assay type: biochemical
Experimental: as §1, §2

Row | IC50 | SMILES
20 | 0.01 to 10 nM | CCC1CN(C(=O)NC(C)(C)C)Cc2c(C(N)=O)c(-c3ccc(F)c(Cl)c3)nn21 (single isomer, unassigned) [Compound A98, N^5-(tert-Butyl)-2-(3-chloro-4-fluorophenyl)-7-ethyl-6,7-dihydropyrazolo[1,5-a]pyrazine-3,5(4H)-dicarboxamide]
21 | 10 to 100 nM | NC(=O)c1c(-c2ccc(F)cc2)nn2c1CN(C(=O)NC1CCCCC1)CC2 [Compound 3, N^5-Cyclohexyl-2-(4-fluorophenyl)-6,7-dihydropyrazolo[1,5-a]pyrazine-3,5(4H)-dicarboxamide]
22 | 10 to 100 nM | CC(C)(NC(=O)N1CCn2nc(-c3cccc(F)c3)c(C(N)=O)c2C1)c1ccc(F)cc1 [Compound 17, 2-(3-Fluorophenyl)-N^5-(2-(4-fluorophenyl)propan-2-yl)-6,7-dihydropyrazolo[1,5-a]pyrazine-3,5(4H)-dicarboxamide]
23 | 10 to 100 nM | CC(C)(NC(=O)N1CCn2nc(-c3cccc(F)c3)c(C(N)=O)c2C1)c1ccccc1 [Compound 25, 2-(3-Fluorophenyl)-N^5-(2-phenylpropan-2-yl)-6,7-dihydropyrazolo[1,5-a]pyrazine-3,5(4H)-dicarboxamide]
